In brackets after ≈: the same amount, converted by molar mass. Marks after values point to notes of the source that are not given here.

These results are taken from patent US11053205B2, “Phenazine derivatives as antimicrobial agents” (University of Florida Research Foundation, Incorporated, priority 2017, dated 2021).

Data set [1] deals with MRSA BAA-1707. In words: MIC, broth microdilution (CLSI). To be noted: 16 to 18 hours at 37° C.; 0.10 = lowest concentration tested. A general note: Dilution methods test growth across graded concentrations, often in twofold steps.
Data set [2] concerns MRSA-2 biofilms. In words: Calgary Biofilm Device (CBD) assay, MBC/MBEC. The settings on record: for MRSA-2 MBEC: biofilm eradication.
Data set [3] deals with human red blood cells.
The test system of data set [4] is HeLa cells.
Data set [5] deals with VRE 700221. The experiment in a line: MIC, broth microdilution (CLSI). The settings on record: 16 to 18 hours at 37° C.
For data set [6], the system named is MRSA BAA-1707 biofilms. In words: Calgary Biofilm Device (CBD) assay, MBC/MBEC. To be noted: CBD; for MRSA BAA-1707 MBEC: biofilm eradication; for MRSA BAA-1707 MBC: planktonic killing.
Data set [7] relates to MRSE 35984 biofilms. In words: Calgary Biofilm Device (CBD) assay, MBC/MBEC. The settings on record: CBD; for MRSE 35984 MBEC: biofilm eradication; for MRSE 35984 MBC: planktonic killing.
The subject of data set [8] is MRSE 35984. In words: MIC, broth microdilution (CLSI). To be noted: 16 to 18 hours at 37° C.

On to `COCCOCCOCCOCCOC(=O)Oc1c(Br)cc(Br)c2nc3cc(Cl)ccc3nc12` [77A], for which the “MRSA BAA-1707 MIC” value in data set [1] worked out at 0.0005 µM.
Consider `C[C@H]1c2cccc(O)c2C(=O)C2=C(O)[C@]3(O)C(=O)C(C(N)=O)=C(O)[C@@H](N(C)C)[C@@H]3[C@@H](O)[C@@H]21` [Doxycycline], for which the “MRSA-2 MBEC” value in data set [2] (CBD) stood at 46.9 µM. Besides, the MBC in data set [2] (Staphylococcus aureus, MRSA, read-out: MRSA-2 MBC) stood at 2 µM (≈ 0.889 µg/mL).
Consider `CCOC(=O)c1ccc2nc3c(O)c(Br)cc(Br)c3nc2c1` [Compound 38], for which, in data set [1], the “MRSA BAA-1707 MIC” value is more than 100 µM.
As to `COCCOCCOCC(=O)Oc1c(Br)cc(Br)c2nc3ccccc3nc12` [Compound 75A], in data set [3], the “Hemolysis at 200 μM” value was 1.2%. The IC50 in data set [4] was more than 100 µM. For the same molecule, in data set [5], the “VRE 700221 MIC” value came out at 3.13 µM. Moreover, in data set [1], the “MRSA BAA-1707 MIC” value was 0.59^a μM. Also, in data set [6], the “MRSA BAA-1707 MBEC” value came out at 75 µM and the “MRSA BAA-1707 MBC” value is 18.8 µM. Further, in data set [7], the “MRSE 35984 MBEC” value turned out to be 37.5 µM and the “MRSE 35984 MBC” value amounted to 9.38 µM.
As to `Oc1c(Br)cc(Br)c2nc3cc(Oc4ccccc4)ccc3nc12` [Compound 34], the “VRE 700221 MIC” value in data set [5] came out at 0.2 µM. Moreover, the “MRSA BAA-1707 MIC” value in data set [1] is 0.1 µM. The “MRSE 35984 MIC” value in data set [8] is 0.1 µM. Moreover, in data set [6], the “MRSA BAA-1707 MBEC” value was 2.35 µM.
`CCN(CC)c1ccc2nc3c(O)c(Br)cc(Br)c3nc2c1Br` [64A] gave an IC50 in data set [4] of more than 100 µM. Further, in data set [6], the “MRSA BAA-1707 MBEC” value was 4.69 µM.
On to `Cc1ccc2nc3c(O)ccc(Br)c3nc2c1` [66A], for which the IC50 in data set [4] was more than 100 µM.
For `CCCc1cn(Cc2ccc3nc4c(OC(C)=O)c(Br)cc(Br)c4nc3c2)nn1` [compound 74], in data set [8], the “MRSE 35984 MIC” value worked out at 18.8 µM.
For `Cc1ccc2nc3c(O)c(Br)cc(Br)c3nc2c1` [52A], in data set [4], the half-inhibitory concentration (IC50) was more than 100 µM.
In the case of `CCCc1ccc2nc3c(O)c(Br)cc(Br)c3nc2c1` [Compound 54A], the “Hemolysis at 200 μM” value in data set [3] worked out at 2.1%. In data set [5], the “VRE 700221 MIC” value came out at 3.13 µM. In addition, the “MRSA BAA-1707 MIC” value in data set [1] was 0.1^b μM. Further, in data set [8], the “MRSE 35984 MIC” value is given as 0.15^a μM. Also, in data set [6], the “MRSA BAA-1707 MBEC” value worked out at 75 µM and the “MRSA BAA-1707 MBC” value came to 37.5 µM. Also, in data set [7], the “MRSE 35984 MBEC” value was 37.5 µM and the “MRSE 35984 MBC” value came out at 25 µM.
As for `OC[C@H]1O[C@@H](Oc2c(Br)cc(Br)c3nc4ccccc4nc23)[C@H](O)[C@@H](O)[C@@H]1O` [Compound 79A], the “Hemolysis at 200 μM” value in data set [3] is not above 1%.
Turning to `Cc1ccc2nc3c(Br)cc(Br)c(O)c3nc2c1C` [Compound 57A], the “VRE 700221 MIC” value in data set [5] was more than 100 µM. For the same molecule, the “MRSA BAA-1707 MIC” value in data set [1] was >100 ^ μM. For the same molecule, in data set [8], the “MRSE 35984 MIC” value is more than 100 µM.
`CCc1ccc2nc3c(O)c(Br)cc(Br)c3nc2c1` [53A]: the concentration for half-maximal inhibition (IC50) in data set [4] was more than 50 µM.
Regarding `CCN(CC)c1ccc2nc3c(O)c(Br)cc(Br)c3nc2c1Br` [Compound 35], the “VRE 700221 MIC” value in data set [5] worked out at 0.30 µM. Also, in data set [1], the “MRSA BAA-1707 MIC” value turned out to be 0.15 µM. Also, the “MRSE 35984 MIC” value in data set [8] amounted to 0.1 µM. In data set [6], the “MRSA BAA-1707 MBEC” value worked out at 4.69 µM. The “MRSE 35984 MBEC” value in data set [7] turned out to be 1.56 µM.
`CC1=C(C)C(=O)C(COC(=O)OCOc2c(Br)cc(Br)c3nc4cc(Cl)ccc4nc23)=C(C)C1=O` [87A]: the “Hemolysis at 200 μM” value in data set [3] worked out at 2.7%. For the same molecule, the half-inhibitory concentration (IC50) in data set [4] is more than 100 µM. Moreover, in data set [1], the “MRSA BAA-1707 MIC” value was 0.15 µM. In addition, the “MRSA BAA-1707 MBEC” value in data set [6] worked out at 12.5 µM.
Turning to `Cc1cc(C)c2nc3c(Br)cc(Br)c(O)c3nc2c1` [56A], the half-inhibitory concentration (IC50) in data set [4] is more than 100 µM. In data set [6], the “MRSA BAA-1707 MBEC” value was 4.69 µM.
`O=C(OCCOCCOCCOCCO)OCOc1c(Br)cc(Br)c2nc3ccccc3nc12` [Compound 82A]: in data set [3], the “Hemolysis at 200 μM” value was 2.7%. The molecule also had an IC50 in data set [4] of more than 100 µM. Further, the “VRE 700221 MIC” value in data set [5] is more than 100 µM. In data set [1], the “MRSA BAA-1707 MIC” value is more than 100 µM. For the same molecule, the “MRSE 35984 MIC” value in data set [8] is more than 100 µM.
Consider `N#CC(C#N)=NNc1cccc(Cl)c1` [CCCP, reference compound], for which, in data set [7], the “MRSE 35984 MBEC” value worked out at 93.8 µM and the “MRSE 35984 MBC” value worked out at 31.3 µM. The “MRSA-2 MBEC” value in data set [2] (CBD) was 1000 µM. Also, the “MRSA-2 MBC” value in data set [2] (CBD, planktonic killing) came out at 31.3 µM.
As for `O=C(OCCSSCCOC(=O)c1ccccc1)OCOc1c(Br)cc(Br)c2nc3ccccc3nc12` [Compound 85A], the “Hemolysis at 200 μM” value in data set [3] is recorded as 1.3%. This molecule also showed a half-inhibitory concentration (IC50) in data set [4] of more than 100 µM. The “VRE 700221 MIC” value in data set [5] is more than 100 µM. The “MRSA BAA-1707 MIC” value in data set [1] was more than 100 µM. In addition, the “MRSE 35984 MIC” value in data set [8] was more than 100 µM.

One may read the IC50 as the concentration that gives 50% inhibition.
